Key:
FAAH [1] = target: T1, FAAH (Mus musculus, UniProt O08914); experiment: In vivo FAAH inhibition after oral dosing, remaining activity in brain homogenate (BRh, central nervous tissue); design: species or system NMRI mice; settings: brain homogenate, 3 mg/kg; for In Vivo BRh 3 mg·kg 8 h (remaining FAAH activity, % of control): 8 h after dosing, low value = strong inhibitor
T1 construct: A fragment of liver, left lung lobe and brain without cerebellum were removed; from tissue; host or cells: male NMRI mice; brain (without cerebellum) and liver homogenates
T1 sequence (O08914 1-579): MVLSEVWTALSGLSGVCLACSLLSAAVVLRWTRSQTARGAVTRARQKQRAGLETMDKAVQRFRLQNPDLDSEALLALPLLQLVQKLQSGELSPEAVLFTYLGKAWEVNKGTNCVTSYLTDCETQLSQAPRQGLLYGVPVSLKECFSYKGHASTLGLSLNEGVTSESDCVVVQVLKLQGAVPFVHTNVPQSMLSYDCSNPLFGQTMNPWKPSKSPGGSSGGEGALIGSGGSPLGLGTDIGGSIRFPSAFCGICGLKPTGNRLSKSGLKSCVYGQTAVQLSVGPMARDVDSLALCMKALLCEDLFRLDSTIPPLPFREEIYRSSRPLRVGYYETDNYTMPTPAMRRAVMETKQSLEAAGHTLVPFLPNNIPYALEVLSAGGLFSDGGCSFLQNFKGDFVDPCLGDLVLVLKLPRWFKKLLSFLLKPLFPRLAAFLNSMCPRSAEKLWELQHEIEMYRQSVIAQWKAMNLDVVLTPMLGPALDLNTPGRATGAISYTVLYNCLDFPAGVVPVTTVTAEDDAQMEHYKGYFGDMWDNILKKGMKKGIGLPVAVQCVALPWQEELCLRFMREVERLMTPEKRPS
Summary of the method: (§1)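 Remaining FAAH activity is given as % of vehicle-treated controls after blank subtraction, measured by radiolabelled AEA hydrolysis (2 μM AEA, 5 nM 3H-AEA, 37 °C) in brain (10 min) or liver (7 min) homogenates. These came from fasted male NMRI mice dosed orally at 30 or 3 mg/kg.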

FAAH [2] = target: T1, FAAH; experiment: In vivo FAAH inhibition after oral dosing, remaining activity in liver homogenate (LVh, peripheral tissue); design: species or system NMRI mice; settings: liver homogenate, 3 mg/kg; for In Vivo LVh 3 mg·kg 8 h (remaining FAAH activity, % of control): 8 h after dosing, low value = strong inhibitor
Summary of the method: as §1

FAAH [3] = target: T2, FAAH (Rattus norvegicus, UniProt P97612); experiment: In vitro FAAH activity in rat brain membranes, 3H-AEA substrate, % of control; format: biochemical, Wistar rats; settings: low value = strong inhibitor; for In Vitro FAAH activity, 100 nM: 100 nM test compound; for In Vitro FAAH activity, 10 uM: 10 uM test compound; for In Vitro 100 nM (FAAH activity, % of control): rat brain membranes, compound at 100 nM
T2 construct: Frozen brains (without cerebellum) from Wistar rats were used; from tissue; host or cells: Wistar rat brain (without cerebellum), washed membrane pellets
T2 sequence (P97612 1-579): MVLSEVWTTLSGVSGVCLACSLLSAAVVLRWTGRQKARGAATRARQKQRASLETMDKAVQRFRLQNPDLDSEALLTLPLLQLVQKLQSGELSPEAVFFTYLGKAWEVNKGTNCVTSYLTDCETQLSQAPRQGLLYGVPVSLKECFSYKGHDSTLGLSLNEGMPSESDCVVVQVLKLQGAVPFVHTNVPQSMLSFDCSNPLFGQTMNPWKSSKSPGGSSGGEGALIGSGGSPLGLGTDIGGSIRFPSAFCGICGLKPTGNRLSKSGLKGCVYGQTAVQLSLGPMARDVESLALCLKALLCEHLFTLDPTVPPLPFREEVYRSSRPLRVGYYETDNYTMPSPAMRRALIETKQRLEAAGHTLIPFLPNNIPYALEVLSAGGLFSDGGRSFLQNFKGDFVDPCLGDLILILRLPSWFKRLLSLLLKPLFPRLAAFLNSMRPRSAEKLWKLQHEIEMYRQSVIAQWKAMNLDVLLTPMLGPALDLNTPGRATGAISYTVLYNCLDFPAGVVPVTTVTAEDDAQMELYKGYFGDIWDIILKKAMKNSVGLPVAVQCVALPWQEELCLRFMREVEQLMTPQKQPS
Summary of the method: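 FAAH activity measured as 3H-ethanolamine released from 2 μM [3H]AEA over 10 min by rat brain membrane preparation, after 15 min 37 °C preincubation with test compound at 10 or 0.1 μM. Charcoal-separated supernatant scintillation-counted; values expressed as % of control minus no-protein blank.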

In Vivo BRh 3 mg/kg 8 h, remaining FAAH activity (FAAH [1]) | In Vivo LVh 3 mg/kg 8 h, remaining FAAH activity (FAAH [2]) | In Vitro FAAH activity, 100 nM (FAAH [3]) | In Vitro FAAH activity, 10 uM (FAAH [3]) | In Vivo BRh 3 mg·kg 8 h (remaining FAAH activity, % of control) (FAAH [1]) | In Vivo LVh 3 mg·kg 8 h (remaining FAAH activity, % of control) (FAAH [2]) | In Vitro 100 nM (FAAH activity, % of control) (FAAH [3]) | SMILES
90.6 % of control | 15.8 % of control | 0.4 % of control | – | – | – | – | CN(C(=O)n1cnc(-c2cccc(-c3ccc(C(N)=O)cc3)c2)c1)C1CCCCC1 [Compound 245, 4-(4′-carbamoylbiphenyl-3-yl)-N-cyclohexyl-N-methyl-1H-imidazole-1-carboxamide]
60.1 % of control | 12.2 % of control | 65.6 % of control | – | – | – | – | CN(C(=O)n1cnc(-c2cccc(-c3cccc(Cl)c3)c2)c1)C1CCCCC1 [Compound 257, 4-(3′-chlorobiphenyl-3-yl)-N-cyclohexyl-N-methyl-1H-imidazole-1-carboxamide]
98.1 % of control | 98.8 % of control | 92.1 % of control | – | – | – | – | Cc1c(-c2ccccc2)ncn1C(=O)N1COCC1(C)C [Compound 263, (4,4-dimethyloxazolidin-3-yl)(5-methyl-4-phenyl-1H-imidazol-1-yl)methanone]
79.4 % of control | 83.7 % of control | 84.1 % of control | – | – | – | – | CCC1CN(C(=O)n2cnc(-c3ccc(Cl)cc3)c2)C(C)(C)O1 (stereo not drawn) [Compound 267, (4-(4-chlorophenyl)-1H-imidazol-1-yl)(5-ethyl-2,2-dimethyloxazolidin-3-yl)methanone]
19 % of control | 7.1 % of control | 63.6 % of control | – | – | – | – | CN(C(=O)n1cnc(-c2ccc(F)c(F)c2)c1)C1CCCCC1 [Compound 272, N-cyclohexyl-4-(3,4-difluorophenyl)-N-methyl-1H-imidazole-1-carboxamide]
– | – | – | – | 3.4 % of control | 2.6 % of control | 65.1 % of control | CN(C(=O)n1cnc(-c2ccc(F)cc2)c1)C1CCCCC1 [Compound 273, N-cyclohexyl-4-(4-fluorophenyl)-N-methyl-1H-imidazole-1-carboxamide]
– | – | – | – | 12.8 % of control | 2.4 % of control | 43.8 % of control | CN(C(=O)n1cnc(-c2cccc([N+](=O)[O-])c2)c1)C1CCCCC1 [Compound 275, N-cyclohexyl-N-methyl-4-(3-nitrophenyl)-1H-imidazole-1-carboxamide]
– | – | – | – | 1.4 % of control | 2 % of control | 71.5 % of control | CN(C(=O)n1cnc(-c2ccc(OC(F)F)cc2)c1)C1CCCCC1 [Compound 276, N-cyclohexyl-4-(4-(difluoromethoxy)phenyl)-N-methyl-1H-imidazole-1-carboxamide]
– | – | – | – | 91.6 % of control | 94.1 % of control | 87.3 % of control | Cc1nc(-c2ccccc2)cn1C(=O)N(C)C1CCCCC1 [Compound 279, N-cyclohexyl-N,2-dimethyl-4-phenyl-1H-imidazole-1-carboxamide]

Continued, compound first:

SMILES | In Vivo BRh 3 mg/kg 8 h, remaining FAAH activity (FAAH [1]) | In Vivo LVh 3 mg/kg 8 h, remaining FAAH activity (FAAH [2]) | In Vitro FAAH activity, 100 nM (FAAH [3]) | In Vitro FAAH activity, 10 uM (FAAH [3]) | In Vivo BRh 3 mg·kg 8 h (remaining FAAH activity, % of control) (FAAH [1]) | In Vivo LVh 3 mg·kg 8 h (remaining FAAH activity, % of control) (FAAH [2]) | In Vitro 100 nM (FAAH activity, % of control) (FAAH [3])
CN(C(=O)n1cnc(-c2cccc(-c3ccccc3)c2)c1)C1CCCCC1 [Compound 239, 4-(biphenyl-3-yl)-N-cyclohexyl-N-methyl-1H-imidazole-1-carboxamide] | 16.4 % of control | 4.6 % of control | 4 % of control | – | – | – | –
COc1cccc(-c2cccc(-c3cn(C(=O)N(C)C4CCCCC4)cn3)c2)c1 [Compound 240, N-cyclohexyl-4-(3′-methoxybiphenyl-3-yl)-N-methyl-1H-imidazole-1-carboxamide] | 99 % of control | 39.5 % of control | 22.4 % of control | – | – | – | –
CN(C(=O)n1cnc(-c2cccc(-c3cccc(O)c3)c2)c1)C1CCCCC1 [Compound 247, N-cyclohexyl-4-(3′-hydroxybiphenyl-3-yl)-N-methyl-1H-imidazole-1-carboxamide] | 131.7 % of control | 85.5 % of control | 0.5 % of control | – | – | – | –
CN(C(=O)n1cnc(-c2cccc(-c3cccc(OC(F)(F)F)c3)c2)c1)C1CCCCC1 [Compound 248, N-cyclohexyl-N-methyl-4-(3′-(trifluoromethoxy)biphenyl-3-yl)-1H-imidazole-1-carboxamide] | 104.2 % of control | 57 % of control | 68.9 % of control | – | – | – | –
CC(C)N(Cc1ccccc1)C(=O)n1cnc(-c2ccccc2)c1 [Compound 250, N-benzyl-N-isopropyl-4-phenyl-1H-imidazole-1-carboxamide] | 102.1 % of control | 52.6 % of control | 90.5 % of control | – | – | – | –
Cc1c(-c2ccccc2)ncn1C(=O)N(C)C1CCCCC1 [Compound 254, N-cyclohexyl-N,5-dimethyl-4-phenyl-1H-imidazole-1-carboxamide] | 98.3 % of control | 89.9 % of control | 81 % of control | 109 % of control | – | – | –
CC1(C)COCN1C(=O)n1cnc(-c2ccc(O)cc2)c1 [Compound 260, (4,4-dimethyloxazolidin-3-yl)(4-(4-hydroxyphenyl)-1H-imidazol-1-yl)methanone] | 8.1 % of control | 7.8 % of control | 95.3 % of control | 37.3 % of control | – | – | –
CN(C(=O)n1cnc(-c2ccc(O)cc2)c1)C1CCCCC1 [Compound 261, N-cyclohexyl-4-(4-hydroxyphenyl)-N-methyl-1H-imidazole-1-carboxamide] | 1.2 % of control | 1.2 % of control | 54.1 % of control | 0 % of control | – | – | –
Cc1c(-c2ccccc2)ncn1C(=O)N(C)Cc1ccccc1 [Compound 264, N-benzyl-N,5-dimethyl-4-phenyl-1H-imidazole-1-carboxamide] | 115 % of control | 76.6 % of control | 88 % of control | – | – | – | –
CN(C(=O)n1cnc(-c2ccccc2)c1)C1CCOCC1 [Compound 278, N-methyl-4-phenyl-N-(tetrahydro-2H-pyran-4-yl)-1H-imidazole-1-carboxamide] | – | – | – | – | 1.6 % of control | 1.8 % of control | 103.5 % of control
CN(C(=O)n1cnc(-c2ccccc2)c1)C1CCN(Cc2ccccc2)CC1 [Compound 282, N-(1-benzylpiperidin-4-yl)-N-methyl-4-phenyl-1H-imidazole-1-carboxamide] | – | – | – | – | 0.5 % of control | 1.6 % of control | 40.9 % of control
